The source made the active and inactive calls. No cut-off for these calls is given here.
Tests used:
[1] = Metabolic stability in human liver microsomes assessed as parent compound remaining at 0.5 mg/mL incubated for 0.5 hrs; type: ADME, Microsome; conditions: read-out: Stabilty
[2] = Induction of fetal hemoglobin in human bone marrow derived CD34+ cells assessed as maximum efficacy incubated for 5 days by FITC staining based flow cytometry analysis relative to decitabine; type: functional; conditions: CD34-positive (myeloid/lymphoid) cell, 120 h, time 5 day
[3] = Metabolic stability in monkey liver microsomes assessed as parent compound remaining at 0.5 mg/mL incubated for 0.5 hrs; type: ADME, Macaca mulatta, Microsome; conditions: rhesus monkey, read-out: Stabilty
[4] = Induction of fetal hemoglobin in human bone marrow derived CD34+ cells incubated for 5 days by FITC staining based flow cytometry analysis; type: functional, tissue-based; conditions: cd34-positive (myeloid/lymphoid) cell
[5] = biological target: CYP2C9 (Homo sapiens, UniProt P11712); assay: Inhibition of CYP2C9 (unknown origin) at 10 uM relative to control; type: ADME
CYP2C9, sequence (P11712 whole entry): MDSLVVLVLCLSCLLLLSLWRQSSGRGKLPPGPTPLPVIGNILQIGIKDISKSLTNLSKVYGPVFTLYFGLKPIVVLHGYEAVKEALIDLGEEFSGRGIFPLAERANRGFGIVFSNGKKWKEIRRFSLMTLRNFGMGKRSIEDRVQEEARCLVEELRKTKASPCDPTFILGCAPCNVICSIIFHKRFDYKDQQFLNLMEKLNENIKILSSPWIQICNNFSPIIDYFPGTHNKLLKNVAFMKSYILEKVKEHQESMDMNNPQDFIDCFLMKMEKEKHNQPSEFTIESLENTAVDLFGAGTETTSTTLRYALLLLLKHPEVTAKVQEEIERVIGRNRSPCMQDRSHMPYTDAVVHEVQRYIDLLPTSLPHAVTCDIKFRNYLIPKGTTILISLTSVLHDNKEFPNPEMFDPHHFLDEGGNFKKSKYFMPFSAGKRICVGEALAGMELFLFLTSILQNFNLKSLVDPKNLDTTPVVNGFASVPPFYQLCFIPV

[6] = biological target: T1, CYP3A4 (Homo sapiens, UniProt P08684); assay: Inhibition of CYP3A4 (unknown origin) at 10 uM relative to control; type: ADME
T1 sequence (P08684 whole entry): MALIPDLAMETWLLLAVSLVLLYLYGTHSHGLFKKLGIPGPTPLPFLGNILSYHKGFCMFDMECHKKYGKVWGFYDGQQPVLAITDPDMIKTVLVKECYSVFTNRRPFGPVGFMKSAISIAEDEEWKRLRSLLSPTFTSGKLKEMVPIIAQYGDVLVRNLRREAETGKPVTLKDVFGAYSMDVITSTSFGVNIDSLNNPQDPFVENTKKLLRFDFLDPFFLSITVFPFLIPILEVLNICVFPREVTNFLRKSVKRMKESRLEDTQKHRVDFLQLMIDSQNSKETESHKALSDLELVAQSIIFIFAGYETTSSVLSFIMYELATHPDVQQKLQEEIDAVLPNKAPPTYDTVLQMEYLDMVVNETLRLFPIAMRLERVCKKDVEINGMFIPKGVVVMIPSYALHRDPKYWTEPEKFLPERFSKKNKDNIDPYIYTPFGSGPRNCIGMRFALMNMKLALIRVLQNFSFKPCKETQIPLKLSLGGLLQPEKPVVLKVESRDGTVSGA

[7] = biological target: T1, CYP3A4; assay: Mechanism based inhibition of CYP3A4 in human liver microsomes assessed as remaining percentage at 100 uM in presence of substrate incubated for 30 mins relative to control; type: ADME; conditions: read-out: Activity
[8] = AUClast in monkey at 1 mg/kg, po; type: ADME, organism-based, Macaca mulatta; parameters: route oral, time 0 - last, dose 1 mg/kg; conditions: rhesus monkey, in vivo
[9] = Cytotoxicity against human bone marrow derived CD34+ cells assessed as effect on cell viability at 0.47 to 15 uM by propidium iodide staining based assay; conditions: cd34-positive (myeloid/lymphoid) cell, dose 0.47-15 µM
[10] = biological target: CYP2D6 (Homo sapiens, UniProt P10635); assay: Inhibition of CYP2D6 (unknown origin) at 10 uM relative to control; type: ADME
CYP2D6, sequence (P10635 whole entry): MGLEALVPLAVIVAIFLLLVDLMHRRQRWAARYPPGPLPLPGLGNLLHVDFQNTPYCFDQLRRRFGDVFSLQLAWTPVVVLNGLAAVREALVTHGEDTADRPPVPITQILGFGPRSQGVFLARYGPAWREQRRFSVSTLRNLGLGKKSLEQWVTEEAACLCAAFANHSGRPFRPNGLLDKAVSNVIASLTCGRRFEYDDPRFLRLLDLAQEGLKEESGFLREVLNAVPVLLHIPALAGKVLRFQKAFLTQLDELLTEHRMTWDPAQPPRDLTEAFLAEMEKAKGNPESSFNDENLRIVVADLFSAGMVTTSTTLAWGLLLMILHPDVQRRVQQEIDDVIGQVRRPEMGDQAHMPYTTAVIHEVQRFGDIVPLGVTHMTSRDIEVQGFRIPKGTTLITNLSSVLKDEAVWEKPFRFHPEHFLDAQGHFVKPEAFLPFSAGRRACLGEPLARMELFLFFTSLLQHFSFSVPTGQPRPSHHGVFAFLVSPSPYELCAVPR

[11] = Protein binding in monkey plasma; type: ADME, cell-free, Macaca mulatta; conditions: rhesus monkey, read-out: PPB (converted)
[12] = Half life in monkey at 1 mg/kg, po; type: ADME, organism-based, Macaca mulatta; conditions: rhesus monkey, in vivo
[13] = Solubility of the compound in pH 6.8 JP2 fluid; type: physicochemical
[14] = Solubility of the compound in pH 1.2 JP1 fluid; type: physicochemical
[15] = Cmax in monkey at 1 mg/kg, po; type: ADME, organism-based, Macaca mulatta; parameters: route oral, dose 1 mg/kg; conditions: rhesus monkey, in vivo
[16] = Genotoxicity in Salmonella typhimurium by Ames test; type: toxicity; conditions: salmonella enterica subsp. enterica serovar typhimurium
[17] = biological target: T2, CYP1A2 (Homo sapiens, UniProt P05177); assay: Inhibition of CYP1A2 (unknown origin) at 10 uM relative to control; type: ADME
T2 sequence (P05177 whole entry): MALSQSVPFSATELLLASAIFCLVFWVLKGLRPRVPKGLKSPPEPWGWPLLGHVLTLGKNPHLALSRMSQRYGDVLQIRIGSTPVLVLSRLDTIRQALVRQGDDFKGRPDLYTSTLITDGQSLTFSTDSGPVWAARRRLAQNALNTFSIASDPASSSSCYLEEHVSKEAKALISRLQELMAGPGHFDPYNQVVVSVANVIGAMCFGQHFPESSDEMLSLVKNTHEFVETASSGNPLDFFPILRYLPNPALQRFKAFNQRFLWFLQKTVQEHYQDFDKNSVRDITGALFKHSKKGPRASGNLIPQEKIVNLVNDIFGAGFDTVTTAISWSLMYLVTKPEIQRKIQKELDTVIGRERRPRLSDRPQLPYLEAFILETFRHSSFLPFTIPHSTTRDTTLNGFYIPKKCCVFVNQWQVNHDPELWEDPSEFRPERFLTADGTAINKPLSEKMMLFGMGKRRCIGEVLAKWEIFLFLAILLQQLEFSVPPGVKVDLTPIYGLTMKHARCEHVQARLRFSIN

[18] = biological target: hERG (KCNH2) (Homo sapiens, UniProt Q12809); assay: Inhibition of human ERG at 10 uM relative to control
hERG (KCNH2), sequence (Q12809 whole entry): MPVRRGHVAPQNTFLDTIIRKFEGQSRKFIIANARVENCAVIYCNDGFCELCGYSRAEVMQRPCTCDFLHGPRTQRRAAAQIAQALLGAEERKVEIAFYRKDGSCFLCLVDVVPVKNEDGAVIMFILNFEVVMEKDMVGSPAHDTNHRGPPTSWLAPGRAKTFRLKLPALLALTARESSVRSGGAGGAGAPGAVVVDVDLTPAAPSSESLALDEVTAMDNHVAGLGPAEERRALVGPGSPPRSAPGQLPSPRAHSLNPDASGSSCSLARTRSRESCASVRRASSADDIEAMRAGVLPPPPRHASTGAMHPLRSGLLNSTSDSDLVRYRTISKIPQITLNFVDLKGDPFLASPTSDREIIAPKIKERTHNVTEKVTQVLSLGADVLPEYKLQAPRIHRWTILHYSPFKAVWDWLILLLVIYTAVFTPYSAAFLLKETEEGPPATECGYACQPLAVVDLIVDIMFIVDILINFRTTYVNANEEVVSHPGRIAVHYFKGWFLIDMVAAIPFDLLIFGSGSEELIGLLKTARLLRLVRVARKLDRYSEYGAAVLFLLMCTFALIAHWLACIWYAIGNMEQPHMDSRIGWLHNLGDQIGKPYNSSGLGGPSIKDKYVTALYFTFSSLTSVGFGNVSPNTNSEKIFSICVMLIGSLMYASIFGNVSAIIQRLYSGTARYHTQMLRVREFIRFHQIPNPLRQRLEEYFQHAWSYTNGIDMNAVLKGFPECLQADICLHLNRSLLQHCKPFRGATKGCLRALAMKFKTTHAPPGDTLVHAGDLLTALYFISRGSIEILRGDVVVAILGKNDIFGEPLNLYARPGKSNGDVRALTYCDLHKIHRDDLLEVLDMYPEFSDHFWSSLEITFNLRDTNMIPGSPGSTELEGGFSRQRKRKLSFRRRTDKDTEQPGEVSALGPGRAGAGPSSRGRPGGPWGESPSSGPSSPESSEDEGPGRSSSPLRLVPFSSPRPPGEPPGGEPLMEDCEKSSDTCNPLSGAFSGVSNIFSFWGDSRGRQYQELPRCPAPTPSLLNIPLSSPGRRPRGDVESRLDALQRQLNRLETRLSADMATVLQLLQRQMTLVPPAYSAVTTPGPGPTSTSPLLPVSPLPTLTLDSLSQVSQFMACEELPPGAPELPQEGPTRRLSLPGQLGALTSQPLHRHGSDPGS

[19] = test system: Macaca fascicularis; assay: In vivo induction of fetal hemoglobin in po dosed cynomolgus monkey assessed as gamma-globin gene expression administered twice for 6 consecutive days by RT-qPCR analysis; type: functional, organism-based; conditions: dose mg/kg 15-30, time 6.0 day
[20] = Cytotoxicity against human bone marrow derived CD34+ cells assessed as effect on cell viability at 15 uM by propidium iodide staining based assay relative to control; parameters: species or system CD34-positive (myeloid/lymphoid) cell; conditions: read-out: Activity
[21] = Toxicity in cynomolgus monkey assessed as transient hypoglycemia at 30 mg/kg, po qd administered for 6 consecutive days; type: organism-based, Macaca fascicularis; conditions: in vivo, 144 h, time 6 day
[22] = test system: Macaca fascicularis; assay: In vivo induction of fetal hemoglobin in cynomolgus monkey assessed as gamma-globin gene expression at 30 mg/kg, po qd administered for 6 consecutive days by RT-qPCR analysis; type: functional, organism-based; conditions: time 6.0 day
[23] = AUClast in monkey at 10 mg/kg, po; type: ADME, organism-based, Macaca mulatta; parameters: route oral, time 0 - last, dose 10 mg/kg; conditions: rhesus monkey, in vivo
[24] = Half life in monkey at 10 mg/kg, po; type: ADME, organism-based, Macaca mulatta; conditions: rhesus monkey, in vivo
[25] = Cmax in monkey at 10 mg/kg, po; type: ADME, organism-based, Macaca mulatta; parameters: route oral, dose 10 mg/kg; conditions: rhesus monkey, in vivo

Row | Compound | remaining at 0.5 h [1] [%] | Emax [2] [%] | remaining at 0.5 h [3] [%] | EC50 [4] [µM] | other results
1 | CCC(=O)N1CC2(CC(NC(=O)c3cc(-c4ccccc4)no3)C2)C1 | 68 | 47 | 69 | > 5 | 
2 | CC(C)C(=O)N1CC2(CC(NC(=O)c3cc(-c4ccccc4)no3)C2)C1 | 79 | 27 | 55 | > 5 | 
3 | CN(C)C(=O)CCCNC(=O)c1cc(-c2ccc(F)cc2)no1 |  | 55 |  | 4.1 | 
4 | CC(=O)N1CC2(CC(NC(=O)c3cc(-c4ccc(F)cc4)no3)C2)C1 | 84 | 64 | 79 | 2.9 | inhibition at 10 µM [5]: < 0%; inhibition at 10 µM [6]: < 0%; activity at 0.5 h, 100 µM [7]: 98%; AUC(0-t) [8]: 2350 ng·h/mL; Activity [9]: Non-Toxic; inhibition at 10 µM [10]: 1%; fraction unbound [11]: 0.28; half-life [12]: 5.9 h; solubility [13]: > 100 µg/mL; solubility [14]: > 100 µg/mL; Cmax [15]: 460 ng/mL; Activity [16]: Non-Toxic; inhibition at 10 µM [17]: 1%
5 | CN(C)C(=O)CCN(C)C(=O)c1cc(-c2ccc(F)cc2)no1 | 98 |  | 36 | > 5 | 
6 | CN(C)C(=O)CCNC(=O)c1cc(-c2cccc(F)c2)no1 | > 100 |  | 55 | > 5 | 
7 | CN(C)C(=O)CCNC(=O)c1csc(-c2ccc(F)cc2)n1 | 53 |  | 0.1 | > 5 | 
8 | CC(CC(=O)N(C)C)NC(=O)c1cc(-c2ccc(F)cc2)no1 (racemic) | 91 |  | 35 | > 5 | 
9 | CN(C)C(=O)CNC(=O)c1cc(-c2ccc(F)cc2)no1 | 84 | 41 | 11 | 6.1 | 
10 | CN(C)C(=O)CCNC(=O)C1CSC(c2ccc(F)cc2)N1 (mixture of isomers) | 90 |  | 32 | > 5 | 
11 | CN(C)C(=O)CCNC(=O)c1cc(-c2ccccc2)no1 | 81 | 51 | 4.7 | 1.7 | 
12 | CC(=O)N1CC2(CC(NC(=O)c3cc(-c4ccccc4)no3)C2)C1 | > 100 | 54 | 64 | 2.8 | inhibition at 10 µM [18]: 18%; inhibition at 10 µM [5]: < 0%; inhibition at 10 µM [6]: < 0%; activity at 0.5 h, 100 µM [7]: 94%; AUC(0-t) [8]: 4210 ng·h/mL; inhibition at 10 µM [10]: 2%; fraction unbound [11]: 0.41; Activity [19]: Dose-dependent effect; half-life [12]: 3.7 h; solubility [13]: > 100 µg/mL; viability at 15 µM [20]: 20%; solubility [14]: > 100 µg/mL; Cmax [15]: 545 ng/mL; Activity [21]: Toxic; Activity [16]: Non-Toxic; inhibition at 10 µM [17]: 3%; Activity [22]: Active
13 | CC(CNC(=O)c1cc(-c2ccc(F)cc2)no1)C(=O)N(C)C (racemic) | 61 |  | 52 | > 5 | 
14 | CN(C)C(=O)CCNC(=O)c1cc(-c2ccccc2F)no1 | > 100 | 37 | 4 | > 5 | 
15 | CN(C)C(=O)CCNC(=O)c1cc(-c2ccc(F)cc2)no1 | 87 | 56 | 10 | 2.8 | inhibition at 10 µM [18]: 7.1%; inhibition at 10 µM [5]: 6%; inhibition at 10 µM [6]: < 0%; activity at 0.5 h, 100 µM [7]: 97%; inhibition at 10 µM [10]: 5%; fraction unbound [11]: 0.42; AUC(0-t) [23]: 4360 ng·h/mL; half-life [24]: 1 h; solubility [13]: > 100 µg/mL; solubility [14]: > 100 µg/mL; Cmax [25]: 1360 ng/mL; Activity [16]: Non-Toxic; inhibition at 10 µM [17]: 6%
16 | CCN1CC2(CC(NC(=O)c3cc(-c4ccccc4)no3)C2)C1 | 100 | 50 | 87 | 5 | 
17 | CC(=O)N1CC(CNC(=O)c2cc(-c3ccccc3)no2)C1 | 50 |  | 17 | > 5 | 
18 | CS(=O)(=O)N1CC2(CC(NC(=O)c3cc(-c4ccccc4)no3)C2)C1 | 76 | 45 | 87 | 3.9 | 
19 | CN(C)C(=O)CCNC(=O)c1cc(C2CCCCC2)no1 | > 100 |  | 34 | > 5 | 
20 | CN(C)C(=O)CCN1CCc2[nH]c(-c3ccc(F)cc3)cc2C1=O | 99 |  | 39 | > 5 | 
21 | CN(C)C(=O)CCN1CCc2c(cc(-c3ccc(F)cc3)n2C)C1=O | > 100 |  | 42 | > 5 | 
22 | CN(C)CCCNC(=O)c1cc(-c2ccc(F)cc2)no1 |  |  |  | > 5 | 
23 | CN(C)C(=O)CCN1CCn2cc(-c3ccc(F)cc3)cc2C1=O | 94 |  | 41 | > 5 | 
